Experimental data as given in article PMC11050599, “Novel Tetracyclic Azaphenothiazines with the Quinoline Ring as New Anticancer and Antibacterial Derivatives of Chlorpromazine” (International Journal of Molecular Sciences, 2024).
Values after ≈ are worked out from the molar mass of the structure shown. Like-named read-outs stand apart in the source and are kept apart here.

Legend:
A549 cells = assay: Annexin V-FITC/PI apoptosis flow cytometry, A549; format: cell-based, human
Procedure: (§1) To analyze the number of cells in early apoptosis, late apoptosis, or necrosis, A549, MiaPaca-2, and HCT-116 cell lines were cultured in 6-well plates with a seeding density of 1 × 10^5 cells per well. These cells were then treated with selected compounds (4, 5, and 8) at their respective IC50 concentrations and incubated for 72 h. Subsequently, a commercially available kit, the FITC: Annexin V Apoptosis Detection Kit I from BD Biosciences Pharmingen in San Jose, CA, USA, was utilized to assess apoptosis. After 72 h the cells were harvested, washed, and labeled with Annexin V-FITC and propidium iodide (PI) following the manufacturer’s protocol (Becton Dickinson), as previously described. The stained cells were analyzed by flow cytometry. The cells were identified as early apoptotic (Annexin V+/PI−) or late apoptotic/necrotic (Annexin V+/PI+).

S. aureus ATCC 25923 = assay: MIC broth microdilution; format: cell-based; conditions: Staphylococcus aureus, ATCC25923; 19 h, 35 °C; read-out: MIC S. aureus ATCC 25923
Text: (§2) To evaluate the antibacterial effectiveness of chloroquinobenzothiazine derivatives, various bacterial strains from international microbe collections such as the American Type Culture Collection (ATCC) and the National Collection of Type Culture (NCTC) were examined, alongside a panel of clinical rods. This included two Gram-negative organisms, E. coli ATCC 25922 and P. aeruginosa ATCC 15442, and a series of six Gram-positive strains: S. aureus NCTC 4163; S. aureus ATCC 29213, 25923, and 6538; and S. epidermidis ATCC 12228 and 35984. […] The MIC was determined using the two-fold serial broth microdilution method in 96-well microtitration plates containing Mueller-Hinton II broth medium (Becton Dickinson, Franklin Lakes, NJ, USA). The final inoculum for all tested bacteria was adjusted to […] (colony-forming units per milliliter). The stock solution of the tested compounds was prepared in dimethyl sulfoxide (DMSO) and diluted to a maximum of 1% solvent content with a sterile medium.

[1] = tested on: S. epidermidis ATCC 35984; assay: MIC broth microdilution; format: cell-based; conditions: Staphylococcus epidermidis, ATCC35984; 19 h, 35 °C; read-out: MIC S. epidermidis ATCC 35984
Text: as §2

[2] = tested on: S. epidermidis ATCC 12228; assay: MIC broth microdilution; format: cell-based; conditions: Staphylococcus epidermidis, ATCC12228; 19 h, 35 °C; read-out: MIC S. epidermidis ATCC 12228
Text: as §2

S. aureus ATCC 6538 = assay: MIC broth microdilution; format: cell-based; conditions: Staphylococcus aureus, ATCC6538; 19 h, 35 °C; read-out: MIC S. aureus ATCC 6538
Text: as §2

E. coli ATCC 25922 = assay: MIC broth microdilution; format: cell-based; conditions: Escherichia coli, ATCC25922; 19 h, 35 °C; read-out: MIC E. coli ATCC 25922
Text: as §2

S. aureus ATCC 29213 = assay: MIC broth microdilution; format: cell-based; conditions: Staphylococcus aureus, ATCC29213; 19 h, 35 °C; read-out: MIC S. aureus ATCC 29213
Text: as §2

S. aureus NCTC 4163 = assay: MIC broth microdilution; format: cell-based; conditions: Staphylococcus aureus, NCTC4163; 19 h, 35 °C; read-out: MIC S. aureus NCTC 4163
Text: as §2

P. aeruginosa ATCC 15442 = assay: MIC broth microdilution; format: cell-based; conditions: Pseudomonas aeruginosa, ATCC15442; 19 h, 35 °C; read-out: MIC P. aeruginosa ATCC 15442
Text: as §2

PC3 (prostate cancer) = assay: MTT assay, PC3 cells; format: cell-based, human; conditions: for IC50: Homo sapiens, PC-3, MTT, 72 h, read-out: IC50 PC3; for SI PC3: SI = IC50 for normal cell line (HaCaT)/IC50 cancer cell line
Procedure: (§3) The human cell lines, such as A549 (lung cancer), MDA-MB-231 (breast cancer), MiaPaca-2 (pancreatic cancer), PC3 (metastatic prostate cancer), HCT-116 (colon carcinoma), and HaCaT (immortalized keratinocytes), were sourced from the American Type Culture Collection (ATCC) in Rockville, USA. Culturing conditions varied as follows: HCT116 cells were cultured in MEM (ThermoSci, Waltham, MA, USA), A549, MDA-MB-231, MiaPaca, HaCaT cells in DMEM High Glucose and PC3 cells were cultured in RPMI (Biowest SAS, Nuaillé, France). The growth medium consisted of 10% fetal bovine serum (FBS, Sigma-Aldrich, St. Louis, MO, USA), 20 mM HEPES (Biowest, Nuaillé, France), and antibiotics (100 U/mL of penicillin and 100 μg/mL of streptomycin) from Gibco, Grand Island, NY, USA. […] These compounds were added to 96-well plates containing study cells (1 × 10^4 cells per well) and incubated for 72 h. […] Cell absorbance results were incorporated into the formula for calculating the relative MTT level (%), enabling the assessment of cell viability following exposure to the test compounds. The cell viability percentage represents the MTT reduction in cells treated with the test compounds compared to the control sample, where only the medium was added to the cells.

[3] = tested on: HaCaT (immortalized human keratinocytes); assay: MTT assay, HaCaT normal cells; format: cell-based; conditions: Homo sapiens, HaCaT, MTT, 72 h, normal cells
Procedure: as §3

A549 (lung cancer) = assay: MTT assay, A549 cells; format: cell-based, human; conditions: for IC50: Homo sapiens, A549, MTT, 72 h, mean SD, read-out: IC50 A549; for SI A549: SI = IC50 for normal cell line (HaCaT)/IC50 cancer cell line
Procedure: as §3

[4] = tested on: MDA-MB-231 (breast cancer); assay: MTT assay, MDA-MB-231 cells; format: cell-based, human; conditions: for IC50: Homo sapiens, MDA-MB-231, MTT, 72 h, MDA-MB231, read-out: IC50 MDA; for SI MDA: SI = IC50 for normal cell line (HaCaT)/IC50 cancer cell line
Procedure: as §3

[5] = tested on: MiaPaCa-2 (pancreas cancer); assay: MTT assay, MiaPaCa-2 cells; format: cell-based, human; conditions: for IC50: Homo sapiens, MIA PaCa-2, MTT, 72 h, read-out: IC50 MiaPaCa-2; for SI MiaPaCa-2: SI = IC50 for normal cell line (HaCaT)/IC50 cancer cell line
Procedure: as §3

HCT116 (colon cancer) = assay: MTT assay, HCT116 cells; format: cell-based, human; conditions: for IC50: Homo sapiens, HCT-116, MTT, 72 h, read-out: IC50 HCT116; for SI HCT116: SI = IC50 for normal cell line (HaCaT)/IC50 cancer cell line
Procedure: as §3

HCT116 cells [6] = assay: Annexin V-FITC/PI apoptosis flow cytometry, HCT116; format: cell-based, human
Procedure: as §1

HCT116 cells [7] = assay: Cell cycle analysis by flow cytometry, HCT116; format: cell-based, human; conditions: IC50, 24 h, compared to the control
Procedure: In brief, cells were seeded at a density of 1 × 10^5 cells/well on a six-well plate and allowed to adhere for 24 h. […] Both population cells (the attached and detached) were collected and centrifuged at 400× g for 5 min at 4 °C. After centrifugation, the cells were washed twice with 0.9% NaCl and subsequently fixed in 500 μL of 70 % cold ethanol overnight.
Before analysis, the fixed cells underwent another centrifugation step at 850× g for 5 min at 4 °C and were washed with PBS. Following the washes, the cells were incubated with 50 μL of RNase (100 μg/mL) and 200 μL of propidium iodide (PI) (50 μg/mL) at 37 °C for 30 min in the dark. Finally, 100 μL of PBS was added to each sample. Flow cytometry (Becton Dickinson FACS Verse, Franklin Lakes, NJ, USA) was then used to analyze the cell cycle distribution, identifying cells in various stages including sub-G1, G0/G1, S, and G2/M phases. Each assay was performed in quadruplicate.

[8] = representative dot plot, Figure 4A, IC50, 72 h
[9] = representative dot plot, Figure 4C, IC50, 72 h

Compound | MIC (S. aureus ATCC 25923) [µg/mL] | MIC [1] [µg/mL] | MIC [2] [µg/mL] | MIC (S. aureus ATCC 6538) [µg/mL] | MIC (E. coli ATCC 25922) [µg/mL] | MIC (S. aureus ATCC 29213) [µg/mL] | MIC (S. aureus NCTC 4163) [µg/mL] | MIC (P. aeruginosa ATCC 15442) [µg/mL] | IC50 (PC3 (prostate cancer)) [µM] | SI PC3 (PC3 (prostate cancer)) | IC50 ([3]; read-out: IC50 HaCaT (Table 3)) [µM] | IC50 ([3]; read-out: IC50 HaCaT (Table 4)) [µM] | IC50 (A549 (lung cancer)) [µM] | IC50 [4] [µM] | SI MDA [4] | IC50 [5] [µM] | SI MiaPaCa-2 [5] | IC50 (HCT116 (colon cancer)) [µM] | SI HCT116 (HCT116 (colon cancer)) | SI A549 (A549 (lung cancer)) | further results
Cc1ccc(S(=O)(=O)NCCCCN2c3cc(Cl)ccc3Sc3cc4ccccc4nc32)cc1 [Compound 25, N-(4-(8-Chloroquino[3,2-b]benzo[1,4]thiazin-6-yl)butyl)-4-methylbenzenesulfonamide] | > 256 | > 256 | > 256 | > 256 | > 256 | > 256 | > 256 | > 256 | 48.6 ± 4.7 | 2.0 | < 100 | > 100 | 9.45 ± 1.3 | > 100 | 1.0 | > 100 | 1.0 | > 100 | 1.0 | – | cells in late apoptosis or necrosis, A549 (A549 cells; compound at IC50, 72 h): 82%; A549: Alive (A549 cells; [8]): 16.32%; A549: Early Apoptotic (A549 cells; [8]): 0.60%; A549: Necrotic (A549 cells; [8]): 32.75%; A549: Necrotic/Late Apoptotic (A549 cells; [8]): 50.34%
Clc1ccc2c(c1)N(Cc1cn(-c3ccccc3)nn1)c1nc3ccccc3cc1S2 [Compound 27, 8-Chloro-6-((1-phenyl-1H-1,2,3-triazol-4-yl)methyl)-quino[3,2-b]benzo[1,4]thiazine] | > 256 | > 256 | > 256 | > 256 | > 256 | > 256 | > 256 | > 256 | > 100 | 1.0 | 70.2 ± 10.4 | 71.7 ± 7.5 | 27.5 ± 6.2 | > 100 | 0.7 | 37.4 ± 5.6 | 1.9 | 49.6 ± 4.7 | 1.4 | 2.5 | –
CS(=O)(=O)NCCCCN1c2cc(Cl)ccc2Sc2cc3ccccc3nc21 [Compound 23, N-(4-(8-Chloroquino[3,2-b]benzo[1,4]thiazin-6-yl)butyl)methanesulfonamide] | > 256 | > 256 | > 256 | > 256 | > 256 | > 256 | > 256 | > 256 | > 100 | 1.0 | > 100 | – | 30.5 ± 8.3 | > 100 | – | 98.4 ± 5.6 | 1.0 | 0.7 ± 0.08 | 143 | 3.3 | cells in late apoptosis/necrosis, HCT116 (HCT116 cells [6]; compound at IC50, 72 h): 93%; HCT-116: Alive (HCT116 cells [6]; [9]): 3.42%; HCT-116: Early Apoptotic (HCT116 cells [6]; [9]): 0.76%; HCT-116: Necrotic (HCT116 cells [6]; [9]): 3.85%; HCT-116: Necrotic/Late Apoptotic (HCT116 cells [6]; [9]): 91.97%; increase in the cell amount at the sub-G1 phase, HCT116 (HCT116 cells [7]): 11 fold; increase in the number of cells in the G2/M phase, HCT116 (HCT116 cells [7]): approximately 1.3 fold; increase in the number of cells in the S phase, HCT116 (HCT116 cells [7]): approximately 2 fold
Clc1ccc2c(c1)N(CCN1CCCC1)c1nc3ccccc3cc1S2 [Compound 9, 8-Chloro-6-(2-(pyrrolidin-1-yl)ethyl)-quino[3,2-b]benzo[1,4]thiazine] | 16 (≈ 41.9 µM) | 16 (≈ 41.9 µM) | 16 (≈ 41.9 µM) | 16 (≈ 41.9 µM) | > 256 | 16 (≈ 41.9 µM) | 16 (≈ 41.9 µM) | > 256 | 77.1 ± 9.4 | 1.3 | > 100 | – | 17.4 ± 4.1 | 77.1 ± 1.6 | 1.3 | 57.4 ± 9.6 | 1.7 | 17.5 ± 1.4 | 5.7 | 5.7 | –
Clc1ccc2c(c1)N(Cc1cn(CSc3ccccc3)nn1)c1nc3ccccc3cc1S2 [Compound 33, 8-Chloro-6-((1-((phenylthio)methyl)-1H-1,2,3-triazol-4-yl)methyl)-quino[3,2-b]benzo[1,4]thiazine] | > 256 | > 256 | > 256 | > 256 | > 256 | > 256 | > 256 | > 256 | – | – | > 100 | – | > 100 | > 100 | 1.0 | – | – | – | – | 1.0 | –
FC(F)(F)c1ccc(-n2cc(CN3c4cc(Cl)ccc4Sc4cc5ccccc5nc43)nn2)cc1 [Compound 28, 8-Chloro-6-((1-(4-(trifluoromethyl)phenyl)-1H-1,2,3-triazol-4-yl)methyl)-quino[3,2-b]benzo[1,4]thiazine] | > 256 | > 256 | > 256 | > 256 | > 256 | > 256 | > 256 | > 256 | – | – | > 100 | – | > 100 | > 100 | 1.0 | – | – | – | – | 1.0 | –
